Columns and labels:
Culex pipiens pallens = test: Knockdown spray test on adult Culex pipiens pallens (Test Example 4); assay type: in vivo; conditions: topical, 0.25 h, active ingredient 0.1% w/v, 0.5 ml sprayed, within 15 minutes, read-out: knockdown rate of the test insects within 15 minutes
Protocol: Ten adult Culex pipiens pallens were released in a polyethylene cup (bottom diameter: 10.6 cm), and the cup was covered with a 16-mesh nylon gauze. The polyethylene cup was placed on the bottom of a test chamber (bottom: 46 cm×46 cm, height: 70 cm). From a height of 30 cm above the upper surface of the polyethylene cup, 0.5 ml of the test drug solution was sprayed using a spray gun (a spraying pressure of 0.4 kg/cm^2). Immediately after spraying, the cup was taken out from the test chamber, and after 2 minutes, 5 minutes and 15 minutes, the number of knocked-down insects was counted to obtain a knockdown rate. The knockdown rate was calculated by the following equation.
(§1) Knockdown Rate (%)=(Number of Knocked-down Insects/Number of Tested Insects)×100

Blattella germanica = test: Knockdown spray test on Blattella germanica, 0.1% w/v oil formulation (Test Example 2); assay type: in vivo; conditions: topical, 0.25 h, active ingredient 0.1% w/v, 1.5 ml sprayed, within 15 minutes, read-out: knockdown rate of the test insects within 15 minutes
Protocol: Ten Blattella germanica (5 males and 5 females) were released in a test container (8.75 cm in diameter, 7.5 cm in height, and the bottom made of 16 mesh metallic wire) with the inner wall on which butter was applied, and the container was placed on the bottom of a test chamber (bottom: 46 cm×46 cm, height: 70 cm). From a height of 60 cm above the upper surface of the container, 1.5 ml of the test drug solution was sprayed using a spray gun (a spraying pressure of 0.42 kg/cm^2). Thirty seconds after spraying, the container was taken out from the test chamber, and after 2 minutes, 5 minutes and 15 minutes, the number of knocked-down insects was counted to obtain a knockdown rate. The knockdown rate was calculated by the following equation.
as §1

Row | Compound | pest or weed control at 0.1 % strength (Culex pipiens pallens) [%] | pest or weed control at 0.1 % strength (Blattella germanica) [%]
1 | O=C(NCC1CCOCC1)c1cc(COc2ccccc2Cl)on1 [(177), N-(tetrahydropyran-4-ylmethyl)-5-(2-chlorophenoxymethyl)isoxazole-3-carboxamide] | ≥ 80 | ≥ 80
2 | O=C(NCC1CCOC1)c1cc(COc2ccc(Cl)cc2)on1 (centres unmarked) [(180)] | ≥ 80 | ≥ 80
3 | O=C(NCC1CCOC1)c1cc(COCc2ccc(-c3ccccc3)o2)on1 (centres unmarked) [(124), N-(tetrahydrofuran-3-ylmethyl)-5-(5-phenylfurfuryloxymethyl)isoxazole-3-carboxamide] | ≥ 80 | ≥ 80
4 | CCc1c(C(=O)NCC2CCOC2)noc1COCc1ccc2ccccc2c1 (centres unmarked) [(338), N-(tetrahydrofuran-3-ylmethyl)-5-(2-naphthylmethoxymethyl)-4-ethylisoxazole-3-carboxamide] | ≥ 80 | ≥ 80
5 | O=C(NCC1CCOC1)c1cc(COCc2cc3ccccc3o2)on1 (centres unmarked) [(111)] | ≥ 80 | ≥ 80
6 | O=C(NCC1CCOCC1)c1cc(COCCCc2ccccc2)on1 [(134), N-(tetrahydropyran-4-ylmethyl)-5-(3-phenylpropoxymethyl)isoxazole-3-carboxamide] | ≥ 80 | ≥ 80
7 | O=C(NCC1CCOC1)c1cc(COCc2cccc(SC(F)(F)F)c2)on1 (centres unmarked) [(80), N-(tetrahydrofuran-3-ylmethyl)-5-(3-trifluoromethylthiobenzyloxymethyl)isoxazole-3-carboxamide] | ≥ 80 | ≥ 80
8 | O=C(NCC1CCOC1)c1cc(COCc2ccc(Cl)c(F)c2)on1 (centres unmarked) [(276), N-(tetrahydrofuran-3-ylmethyl)-5-(4-chloro-3-fluorobenzyloxymethyl)isoxazole-3-carboxamide] | ≥ 80 | ≥ 80
9 | O=C(NCC1CCOC1)c1noc(COCc2ccccc2F)c1F (centres unmarked) [(298), N-(tetrahydrofuran-3-ylmethyl)-5-(2-fluorobenzyloxymethyl)-4-fluoroisoxazole-3-carboxamide] | ≥ 80 | ≥ 80
10 | O=C(NCC1CCOC1)c1cc(COCc2ccc3sccc3c2)on1 (centres unmarked) [(336), N-(tetrahydrofuran-3-ylmethyl)-5-[(5-benzothiophenyl)methoxymethyl]isoxazole-3-carboxamide] | ≥ 80 | ≥ 80
11 | Cc1c(C(=O)NCC2CCOC2)noc1CCCc1ccccc1 (centres unmarked) [(221), N-(tetrahydrofuran-3-ylmethyl)-4-methyl-5-(3-phenylpropyl)isoxazole-3-carboxamide] | ≥ 80 | ≥ 80
12 | O=C(NCC1CCOC1)c1cc(COCc2ccc(F)c(F)c2)on1 (centres unmarked) [(263), N-(tetrahydrofuran-3-ylmethyl)-5-(3,4-difluorobenzyloxymethyl)isoxazole-3-carboxamide] | ≥ 80 | ≥ 80
13 | O=C(NCC1CCOC1)c1cc(COCc2ccc(Cl)s2)on1 (centres unmarked) [(109), N-(tetrahydrofuran-3-ylmethyl)-5-(2-chlorothiophen-5-ylmethoxymethyl)isoxazole-3-carboxamide] | ≥ 80 | ≥ 80
14 | O=C(NCC1CCOC1)c1cc(COCc2ccccc2Br)on1 (centres unmarked) [(265), N-(tetrahydrofuran-3-ylmethyl)-5-(2-bromobenzyloxymethyl)isoxazole-3-carboxamide] | ≥ 80 | ≥ 80
15 | COc1ccc(COCc2cc(C(=O)NCC3CCOC3)no2)cc1 (centres unmarked) [(99), N-(tetrahydrofuran-3-ylmethyl)-5-(4-methoxybenzyloxymethyl) isoxazole-3-carboxamide] | ≥ 80 | ≥ 80
16 | O=Cc1c(C(=O)NCC2CCOC2)noc1COCc1ccccc1 (centres unmarked) [(165), N-(tetrahydrofuran-3-ylmethyl)-(5-benzyloxymethyl-4-formyl) isoxazole-3-carboxamide] |  | ≥ 80
17 | Cc1c(F)c(F)c(COCc2cc(C(=O)NCC3CCOC3)no2)c(F)c1F (centres unmarked) [(273), N-(tetrahydrofuran-3-ylmethyl)-5-(4-methyl-2,3,5,6-tetrafluorobenzyloxymethyl)isoxazole-3-carboxamide] | ≥ 80 | 
18 | O=C(NCC1CCOC1)c1cc(Cc2ccc(Oc3ccccc3)cc2)on1 (centres unmarked) [(162), N-(tetrahydrofuran-3-ylmethyl)-5-(4-phenoxybenzyl)isoxazole-3-carboxamide] | ≥ 80 | 
19 | O=C(NCC1CCOCC1)c1cc(COc2cccc(SC(F)(F)F)c2)on1 [(203), N-(tetrahydropyran-4-ylmethyl)-5-(3-trifluoromethylthiophenoxymethyl)isoxazole-3-carboxamide] | ≥ 80 | 
20 | O=C(NCC1CCOC1)c1cc(Cc2ccccc2F)on1 (centres unmarked) [(320), N-(tetrahydrofuran-3-ylmethyl)-5-(2-fluorobenzyl)isoxazole-3-carboxamide] | ≥ 80 | 
21 | O=C(NCC1CCOCC1)c1cc(COc2ccc(F)cc2)on1 [(185)] | ≥ 80 | 
22 | O=C(NCC1CCOC1)c1cc(COCc2c(F)c(F)cc(F)c2F)on1 (centres unmarked) [(269), N-(tetrahydrofuran-3-ylmethyl)-5-(2,3,5,6-tetrafluorobenzyloxymethyl)isoxazole-3-carboxamide] | ≥ 80 | 
23 | O=C(NCC1CCOC1)c1cc(CCCOc2ccccc2)on1 (centres unmarked) [(145), N-(tetrahydrofuran-3-ylmethyl)-5-(3-phenoxypropyl)isoxazole-3-carboxamide] | ≥ 80 | 
24 | O=C(NCC1CCOC1)c1noc(COCc2ccc3ccccc3c2)c1I (centres unmarked) [(295), N-(tetrahydrofuran-3-ylmethyl)-5-(2-naphthylmethoxymethyl)-4-iodoisoxazole-3-carboxamide] | ≥ 80 | 
25 | O=C(NCC1CCOC1)c1cc(COc2cccc(SC(F)(F)F)c2)on1 (centres unmarked) [(202), N-(tetrahydrofuran-3-ylmethyl)-5-(3-trifluoromethylthiophenoxymethyl)isoxazole-3-carboxamide] | ≥ 80 | 
26 | O=C(NCC1CCOC1)c1cc(CCCc2ccc3c(c2)OC(F)(F)O3)on1 (centres unmarked) [(231), N-(tetrahydrofuran-3-ylmethyl)-5-[5-(2,2-difluoro-1,3-benzodioxolanyl)propyl]isoxazole-3-carboxamide] | ≥ 80 | 
27 | O=C(NCC1CCOC1)c1noc(COCc2ccc3ccccc3c2)c1Br (centres unmarked) [(256), N-(tetrahydrofuran-3-ylmethyl)-5-(2-naphthylmethoxymethyl)-4-bromoisoxazole-3-carboxamide] | ≥ 80 | 
28 | O=C(NCC1CCOC1)c1cc(CSCc2ccccc2)on1 (centres unmarked) [(254), N-(tetrahydrofuran-3-ylmethyl)-5-benzylthiomethylisoxazole-3-carboxamide] | ≥ 80 | 
29 | O=C(NCC1CCOC1)c1cc(COCc2cc(F)ccc2F)on1 (centres unmarked) [(259), N-(tetrahydrofuran-3-ylmethyl)-5-(2,5-difluorobenzyloxymethyl)isoxazole-3-carboxamide] | ≥ 80 | 
